{"source": "patent US5160526A", "about": "“Alkene stabilizers for 3-isothiazolone compounds” (priority 1991, dated 1992)", "key": {"[1]": {"details": "2-propanol + 2% water, 55° C", "protocol": "A solution of 5-chloro-2methyl-3-isothiazolone (\"5-Chloro\") and 2-methyl-3-isothiazolone (\"2-Methyl\") (3.11 g) was prepared in 2-propanol (12.1 g). This solution was distributed in 6 vials. Water (2%) and varying amounts of norbornene were then added. These were then put in a 55° C. oven and analyzed periodically."}, "[2]": {"experiment": "Stabilization of 5-Chloro and 2-Methyl mixture by norbornene in 2-propanol, 55° C oven", "assay_type": "physicochemical", "text": "This solution was distributed into 6 vials and varying amounts of norbornene added."}, "[3]": {"assay_type": "physicochemical", "details": "2-propanol, 55° C", "protocol": "Varying amounts of DHP were added and the vials put in a 55° C. oven. Active ingredient analysis was done periodically."}, "[4]": {"assay_type": "physicochemical", "details": "DPG, 55° C", "protocol": "This solution was distributed into 6 vials (3 g each) and varying amounts of cyclohexene were added. The vials were then heated at 55° C. and analyzed periodically."}, "[5]": {"assay_type": "physicochemical", "details": "kerosene/diethylene glycol butyl ether", "protocol": "In a formulation comprised of 3 parts by weight of a mixture of 5-chloro-2-methyl-3-isothiazolone and 2-methyl-3-isothiazolone in a 3:1 ratio, 94 parts by weight of a mixture of kerosene […] and diethylene glycol butyl ether (20 parts by weight), 3 parts by weight norbornene stabilizer was added. The control had no norbornene.\nExample 9 was repeated except using 1 part by weight norbornene. No loss of 5-chloro-2-methyl-3-isothiazolone was observed after eight weeks at 55° C.\nExample 9 was repeated except using 1-tetradecene as stabilizer resulting in 86% 5-chloro-2-methyl-3-isothiazolone remaining after four weeks at 55° C. and complete loss by eight weeks."}, "[6]": {"experiment": "Stabilization of 5-Chloro and 2-Methyl mixture by norbornene in dipropylene glycol containing 0.5% water, 55° C oven", "assay_type": "physicochemical", "details": "DPG (0.5% water)", "protocol": "To 19.9 g of dipropylene glycol was added 0.1 g of water. […] This solution was distributed into 6 vials and varying amounts of norbornene were added."}}, "note": "Where two headings read alike, the source gives them in different places.", "data": [{"smiles": "Cn1sc(Cl)cc1=O", "note": "[5-chloro-2-methyl-3-isothiazolone]", "values": [{"measurement": "2-Methyl (%) / 5-Chloro (%)", "setting": "[1]; 0% norbornene, 0 days", "value": 12.2, "unit": "%"}, {"measurement": "2-Methyl (%) / 5-Chloro (%)", "setting": "[1]; 0% norbornene, 7 days", "value": 0.23, "unit": "%"}, {"measurement": "2-Methyl (%) / 5-Chloro (%)", "setting": "[1]; 1.2% norbornene, 0 days", "value": 16.7, "unit": "%"}, {"measurement": "2-Methyl (%) / 5-Chloro (%)", "setting": "[1]; 1.2% norbornene, 7 days", "value": 0.09, "unit": "%"}, {"measurement": "2-Methyl (%) / 5-Chloro (%)", "setting": "[1]; 2.3% norbornene, 0 days", "value": 16.5, "unit": "%"}, {"measurement": "2-Methyl (%) / 5-Chloro (%)", "setting": "[1]; 2.3% norbornene, 7 days", "value": 0.09, "unit": "%"}, {"measurement": "2-Methyl (%) / 5-Chloro (%)", "setting": "[1]; 4.2% norbornene, 0 days", "value": 16.2, "unit": "%"}, {"measurement": "2-Methyl (%) / 5-Chloro (%)", "setting": "[1]; 4.2% norbornene, 7 days", "value": 0.07, "unit": "%"}, {"measurement": "2-Methyl (%) / 5-Chloro (%)", "setting": "[1]; 8.1% norbornene, 0 days", "value": 15.7, "unit": "%"}, {"measurement": "2-Methyl (%) / 5-Chloro (%)", "setting": "[1]; 8.1% norbornene, 7 days", "value": "< 0.1", "unit": "%"}, {"measurement": "2-Methyl (%) / 5-Chloro (%)", "setting": "[1]; 14.1% norbornene, 0 days", "value": 14.7, "unit": "%"}, {"measurement": "2-Methyl (%) / 5-Chloro (%)", "setting": "[1]; 14.1% norbornene, 7 days", "value": 13.5, "unit": "%"}, {"measurement": "2-Methyl (%) / 5-Chloro (%)", "setting": "[1]; 14.1% norbornene, 21 days", "value": "< 0.1", "unit": "%"}, {"measurement": "stabilization with norbornene (in words)", "setting": "[2]", "value": "completely stabilized"}, {"measurement": "2-Methyl (%) / 5-Chloro (%)", "setting": "[3]; 0% DHP, 0 days", "value": 11.6, "unit": "%"}, {"measurement": "2-Methyl (%) / 5-Chloro (%)", "setting": "[3]; 0% DHP, 12 days", "value": 0.4, "unit": "%"}, {"measurement": "2-Methyl (%) / 5-Chloro (%)", "setting": "[3]; 3.5% DHP, 0 days", "value": 11.1, "unit": "%"}, {"measurement": "2-Methyl (%) / 5-Chloro (%)", "setting": "[3]; 3.5% DHP, 12 days", "value": 0.1, "unit": "%"}, {"measurement": "2-Methyl (%) / 5-Chloro (%)", "setting": "[3]; 6.3% DHP, 0 days", "value": 10.8, "unit": "%"}, {"measurement": "2-Methyl (%) / 5-Chloro (%)", "setting": "[3]; 6.3% DHP, 12 days", "value": 0.1, "unit": "%"}, {"measurement": "2-Methyl (%) / 5-Chloro (%)", "setting": "[3]; 11.8% DHP, 0 days", "value": 10.2, "unit": "%"}, {"measurement": "2-Methyl (%) / 5-Chloro (%)", "setting": "[3]; 11.8% DHP, 12 days", "value": 0.6, "unit": "%"}, {"measurement": "2-Methyl (%) / 5-Chloro (%)", "setting": "[3]; 16.7% DHP, 0 days", "value": 9.7, "unit": "%"}, {"measurement": "2-Methyl (%) / 5-Chloro (%)", "setting": "[3]; 16.7% DHP, 12 days", "value": 0.5, "unit": "%"}, {"measurement": "2-Methyl (%) / 5-Chloro (%)", "setting": "[3]; 21.1% DHP, 0 days", "value": 9.2, "unit": "%"}, {"measurement": "2-Methyl (%) / 5-Chloro (%)", "setting": "[3]; 21.1% DHP, 12 days", "value": 0.4, "unit": "%"}, {"measurement": "2-Methyl (%) / 5-Chloro (%)", "setting": "[4]; 0% cyclohexene, 0 days", "value": 11.4, "unit": "%"}, {"measurement": "2-Methyl (%) / 5-Chloro (%)", "setting": "[4]; 0% cyclohexene, 13 days", "value": "< 0.1", "unit": "%"}, {"measurement": "2-Methyl (%) / 5-Chloro (%)", "setting": "[4]; 3.2% cyclohexene, 0 days", "value": 10.1, "unit": "%"}, {"measurement": "2-Methyl (%) / 5-Chloro (%)", "setting": "[4]; 3.2% cyclohexene, 13 days", "value": 0.19, "unit": "%"}, {"measurement": "2-Methyl (%) / 5-Chloro (%)", "setting": "[4]; 6.8% cyclohexene, 0 days", "value": 10.9, "unit": "%"}, {"measurement": "2-Methyl (%) / 5-Chloro (%)", "setting": "[4]; 6.8% cyclohexene, 13 days", "value": 0.10, "unit": "%"}, {"measurement": "2-Methyl (%) / 5-Chloro (%)", "setting": "[4]; 9.1% cyclohexene, 0 days", "value": 10.6, "unit": "%"}, {"measurement": "2-Methyl (%) / 5-Chloro (%)", "setting": "[4]; 9.1% cyclohexene, 13 days", "value": 8.6, "unit": "%"}, {"measurement": "2-Methyl (%) / 5-Chloro (%)", "setting": "[4]; 9.1% cyclohexene, 30 days", "value": 0.0, "unit": "%"}, {"measurement": "2-Methyl (%) / 5-Chloro (%)", "setting": "[4]; 11.8% cyclohexene, 0 days", "value": 10.5, "unit": "%"}, {"measurement": "2-Methyl (%) / 5-Chloro (%)", "setting": "[4]; 11.8% cyclohexene, 13 days", "value": 7.9, "unit": "%"}, {"measurement": "2-Methyl (%) / 5-Chloro (%)", "setting": "[4]; 11.8% cyclohexene, 30 days", "value": 0.0, "unit": "%"}, {"measurement": "2-Methyl (%) / 5-Chloro (%)", "setting": "[4]; 16.7% cyclohexene, 0 days", "value": 10.2, "unit": "%"}, {"measurement": "2-Methyl (%) / 5-Chloro (%)", "setting": "[4]; 16.7% cyclohexene, 13 days", "value": 9.0, "unit": "%"}, {"measurement": "2-Methyl (%) / 5-Chloro (%)", "setting": "[4]; 16.7% cyclohexene, 30 days", "value": 0.0, "unit": "%"}, {"measurement": "loss of 5-chloro-2-methyl-3-isothiazolone", "setting": "[5]; 1-tetradecene as stabilizer, by eight weeks at 55° C", "value": "complete loss"}, {"measurement": "loss of 5-chloro-2-methyl-3-isothiazolone", "setting": "[5]; 1 part by weight norbornene, eight weeks at 55° C", "value": "No loss"}, {"measurement": "5-chloro-2-methyl-3-isothiazolone left", "setting": "[5]; control, no norbornene, eight weeks at 55° C", "value": "no 5-chloro-2-methyl-3-isothiazolone left"}, {"measurement": "5-chloro-2-methyl-3-isothiazolone remaining", "setting": "[5]; 672 h", "value": 86, "unit": "%"}, {"measurement": "5-chloro-2-methyl-3-isothiazolone remaining", "setting": "[5]; 1344 h", "value": 100, "unit": "%"}, {"measurement": "2-Methyl (%) / 5-Chloro (%)", "setting": "[6]; 0% norbornene, 0 days", "value": 11.7, "unit": "%"}, {"measurement": "2-Methyl (%) / 5-Chloro (%)", "setting": "[6]; 0% norbornene, 14 days", "value": 0.0, "unit": "%"}, {"measurement": "2-Methyl (%) / 5-Chloro (%)", "setting": "[6]; 0% norbornene, 30 days", "value": 0, "unit": "%"}, {"measurement": "2-Methyl (%) / 5-Chloro (%)", "setting": "[6]; 1.6% norbornene, 0 days", "value": 11.7, "unit": "%"}, {"measurement": "2-Methyl (%) / 5-Chloro (%)", "setting": "[6]; 1.6% norbornene, 14 days", "value": 0, "unit": "%"}, {"measurement": "2-Methyl (%) / 5-Chloro (%)", "setting": "[6]; 3.2% norbornene, 0 days", "value": 11.5, "unit": "%"}, {"measurement": "2-Methyl (%) / 5-Chloro (%)", "setting": "[6]; 3.2% norbornene, 14 days", "value": 10.4, "unit": "%"}, {"measurement": "2-Methyl (%) / 5-Chloro (%)", "setting": "[6]; 3.2% norbornene, 30 days", "value": 0.1, "unit": "%"}, {"measurement": "2-Methyl (%) / 5-Chloro (%)", "setting": "[6]; 6.5% norbornene, 0 days", "value": 11.2, "unit": "%"}, {"measurement": "2-Methyl (%) / 5-Chloro (%)", "setting": "[6]; 6.5% norbornene, 14 days", "value": 10.8, "unit": "%"}, {"measurement": "2-Methyl (%) / 5-Chloro (%)", "setting": "[6]; 6.5% norbornene, 30 days", "value": 10.1, "unit": "%"}, {"measurement": "2-Methyl (%) / 5-Chloro (%)", "setting": "[6]; 9.0% norbornene, 0 days", "value": 11.0, "unit": "%"}, {"measurement": "2-Methyl (%) / 5-Chloro (%)", "setting": "[6]; 9.0% norbornene, 14 days", "value": 10.7, "unit": "%"}, {"measurement": "2-Methyl (%) / 5-Chloro (%)", "setting": "[6]; 9.0% norbornene, 30 days", "value": 10.4, "unit": "%"}, {"measurement": "2-Methyl (%) / 5-Chloro (%)", "setting": "[6]; 14.3% norbornene, 0 days", "value": 10.5, "unit": "%"}, {"measurement": "2-Methyl (%) / 5-Chloro (%)", "setting": "[6]; 14.3% norbornene, 14 days", "value": 10.2, "unit": "%"}, {"measurement": "2-Methyl (%) / 5-Chloro (%)", "setting": "[6]; 14.3% norbornene, 30 days", "value": 9.7, "unit": "%"}]}]}
